Tests used:
Assay type in all cases: physicochemical
[1] = Solvent medium transformation (suspension in water or ethanol, PXRD of residual solid); settings: water or ethanol (99.5), room temperature
Procedure: Form A and the monohydrate were suspended in water or ethanol (99.5) at room temperature, and the powder X-ray diffraction (PXRD) patterns of the residual solid materials were measured (Bruker AXS D8 Discover with GADDS).

[2] = Dispersibility comparison assay, Method 2 (change of transmittance at 650 nm); settings: 5 mg in 10 mL of water (0.5 mg/mL)
Procedure: The dispersibility of two crystal forms of Cefdinir was compared by evaluating sedimentation rates of two crystal forms. The evaluating sedimentation rate was conducted by using two methods as follow.
5 mg of crystal form A or the monohydrate were dispersed in 10 mL of water (sample concentration: 0.5 mg/mL), and the suspensions were vigorously shaken. Then, the dispersed suspensions were transferred in the cell for UV measurement, and changes of the transmittances at 650 nm were measured.

[3] = Dispersibility comparison assay, Method 1 (visual observation of suspension in test tube); settings: summary statement
Procedure: The dispersibility of two crystal forms of Cefdinir was compared by evaluating sedimentation rates of two crystal forms. The evaluating sedimentation rate was conducted by using two methods as follow. About 1250 mg of crystal form A or the monohydrate were dispersed in 50 mL of water (125 mg/5 mL), and the suspensions were vigorously shaken by hand. […] The pictures of suspension states were taken with time.

Structure (SMILES)	crystalline conversion in aqueous and ethanol suspensions (PXRD of residual solid) [1]	change of transmittance of suspension at 650 nm [2]	dispersibility in aqueous solvent [3]	sedimentation rate in aqueous solvent [3]
C=CC1=C(C(=O)O)N2C(=O)C(NC(=O)C(=NO)c3csc(N)n3)[C@H]2SC1 (single isomer, unassigned) [form A, 7-[2-(2-aminothiazol-4-yl)-2-hydroxyiminoacetamido]-3-vinyl-3-cephem-4-carboxyl ic acid (syn isomer)]	no crystalline conversion to other crystal form	faster increase than that of the monohydrate	–	–
C=CC1=C(C(=O)O)N2C(=O)C(NC(=O)C(=NO)c3csc(N)n3)[C@H]2SC1 (single isomer, unassigned) [crystal form C, 7-[2-(2-aminothiazol-4-yl)-2-hydroxyiminoacetamido]-3-vinyl-3-cephem-4-carboxyl ic acid (syn isomer)]	–	–	higher than that of crystal form A	lower than that of crystal form A
